Measured values from ChEMBL document CHEMBL1201862, “PubChem BioAssay data set” (2004).
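Interpolation was linear, between the two tested concentrations surrounding the appropriate level; five concentrations were tested over 48 hours in 96-well plates. GI50 = concentration required for 50% inhibition of growth.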 The source made the active and inactive calls. Rule as the data show it: active = GI50 up to about 1.1 µM and inactive = higher.

How the values were obtained:
Assay in all cases: DTP human tumour cell line panel, 48 h
786-0 = system: 786-0
A498 = system: A498
BT-549 = system: BT-549
EKVX = system: EKVX
HCT-15 = system: HCT-15
HT-29 = system: HT-29
M14 = system: M14
MDA-MB-435 = system: MDA-MB-435
NCI-H460 = system: NCI-H460
OVCAR-4 = system: OVCAR-4
OVCAR-5 = system: OVCAR-5
RXF 393 = system: RXF 393
SF-268 = system: SF-268
SF-539 = system: SF-539
SNB-75 = system: SNB-75
U-251 = system: U-251
UO-31 = system: UO-31
MCF7 = system: MCF7
SR = system: SR
UACC-62 = system: UACC-62

| SMILES | GI50 (786-0) | GI50 (A498) | GI50 (BT-549) | GI50 (EKVX) | GI50 (HCT-15) | GI50 (HT-29) | GI50 (M14) | GI50 (MDA-MB-435) | GI50 (NCI-H460) | GI50 (OVCAR-4) | GI50 (OVCAR-5) | GI50 (RXF 393) | GI50 (SF-268) | GI50 (SF-539) | GI50 (SNB-75) | GI50 (U-251) | GI50 (UO-31) | GI50 (MCF7) | GI50 (SR) | GI50 (UACC-62) |
| --- | --- | --- | --- | --- | --- | --- | --- | --- | --- | --- | --- | --- | --- | --- | --- | --- | --- | --- | --- | --- |
| C/C(O[Si](C(C)C)(C(C)C)C(C)C)=C(\C)C(=O)N(C)c1ccccc1Cl | > 100 µM (inactive) | > 100 µM (inactive) | > 100 µM (inactive) | > 100 µM (inactive) | > 100 µM | > 100 µM (inactive) | > 100 µM (inactive) | > 100 µM (inactive) | > 100 µM (inactive) | > 100 µM (inactive) | > 100 µM (inactive) | > 100 µM (inactive) | > 100 µM (inactive) | > 100 µM (inactive) | 81.5 µM (inactive) | > 100 µM (inactive) | > 100 µM (inactive) | – | – | – |
| Cc1nc(N)sc1C(=O)Nc1nc[nH]n1 | > 100 µM (inactive) | – | > 100 µM (inactive) | > 100 µM (inactive) | > 100 µM | > 100 µM (inactive) | > 100 µM (inactive) | > 100 µM (inactive) | > 100 µM (inactive) | > 100 µM (inactive) | > 100 µM (inactive) | > 100 µM (inactive) | > 100 µM (inactive) | > 100 µM (inactive) | – | > 100 µM (inactive) | > 100 µM (inactive) | > 100 µM (inactive) | 14.1 µM (inactive) | > 100 µM (inactive) |
| CC(O)CN1c2ccccc2Sc2ccc(Cl)cc21 (stereo unspecified) | > 10 µM (inactive) | > 10 µM (inactive) | > 10 µM (inactive) | > 10 µM (inactive) | > 10 µM | > 10 µM (inactive) | > 10 µM (inactive) | > 10 µM (inactive) | > 10 µM (inactive) | > 10 µM (inactive) | > 10 µM (inactive) | > 10 µM (inactive) | > 10 µM (inactive) | > 10 µM (inactive) | > 10 µM (inactive) | > 10 µM (inactive) | > 10 µM (inactive) | > 10 µM (inactive) | – | > 10 µM (inactive) |
| CCOC(=O)c1cc2cc(C)cc(C(=O)c3ccc([N+](=O)[O-])cc3)c2[nH]1 | 86.7 µM (inactive) | > 100 µM (inactive) | > 100 µM (inactive) | > 100 µM (inactive) | > 100 µM | > 100 µM (inactive) | > 100 µM (inactive) | > 100 µM (inactive) | > 100 µM (inactive) | > 100 µM (inactive) | > 100 µM (inactive) | 37.7 µM (inactive) | > 100 µM (inactive) | > 100 µM (inactive) | 51.6 µM (inactive) | 26.6 µM (inactive) | > 100 µM (inactive) | > 100 µM (inactive) | – | > 100 µM (inactive) |
| Cc1ccc(N2CCC3(CC2)OCCO3)cc1 | > 100 µM (inactive) | > 100 µM (inactive) | > 100 µM (inactive) | > 100 µM (inactive) | > 100 µM | > 100 µM (inactive) | > 100 µM (inactive) | > 100 µM (inactive) | > 100 µM (inactive) | > 100 µM (inactive) | > 100 µM (inactive) | > 100 µM (inactive) | > 100 µM (inactive) | > 100 µM (inactive) | > 100 µM (inactive) | > 100 µM (inactive) | > 100 µM (inactive) | – | > 100 µM (inactive) | > 100 µM (inactive) |
| c1ccc([B-]2(c3ccccc3)OCCc3cccc[n+]32)cc1 | 70.1 µM (inactive) | 19.6 µM (inactive) | 31.6 µM (inactive) | 91.8 µM (inactive) | 44.5 µM | 87.1 µM (inactive) | 36.2 µM (inactive) | 33.3 µM (inactive) | 60.3 µM (inactive) | 82.4 µM (inactive) | > 100 µM (inactive) | 33.3 µM (inactive) | 97.5 µM (inactive) | 28.5 µM (inactive) | – | > 100 µM (inactive) | 23.7 µM (inactive) | – | 22.8 µM (inactive) | 58.3 µM (inactive) |
| O=S1(=O)OCCOS(=O)(=O)C1S(=O)(=O)c1ccc2ccccc2c1 | > 100 µM (inactive) | – | > 100 µM (inactive) | > 100 µM (inactive) | > 100 µM | > 100 µM (inactive) | > 100 µM (inactive) | > 100 µM (inactive) | > 100 µM (inactive) | > 100 µM (inactive) | > 100 µM (inactive) | – | – | – | – | > 100 µM (inactive) | > 100 µM (inactive) | > 100 µM (inactive) | > 100 µM (inactive) | – |
| Oc1ccc(-c2nc3cc(F)ccc3s2)cc1 | 28.6 µM (inactive) | – | 20 µM (inactive) | 13.2 µM (inactive) | 23.6 µM | 23.3 µM (inactive) | 20 µM (inactive) | 20 µM (inactive) | 19.3 µM (inactive) | 13.6 µM (inactive) | 23.1 µM (inactive) | 27.4 µM (inactive) | 26.7 µM (inactive) | – | – | 19.9 µM (inactive) | 19.3 µM (inactive) | 1.14 µM (inactive) | 2.38 µM (inactive) | 17.5 µM (inactive) |
